The source of these data is paper PMC6155387, “Alkoxy and Enediyne Derivatives Containing 1,4-Benzoquinone Subunits—Synthesis and Antitumor Activity” (Molecules : A Journal of Synthetic Chemistry and Natural …, 2017).

Experiment [1] relates to C-32. As to conditions: melanoma C-32, read-out: IC50 ± SD C-32, cited from earlier work.
Experiment [2] relates to SNB-19. As to conditions: glioblastoma SNB-19, read-out: IC50 ± SD SNB-19, cited from earlier work.
Experiment [3] relates to MDA-MB-231. As to conditions: breast cancer MDA-MB-231, read-out: IC50 ± SD MDA-MB-231, cited from earlier work.
The subject of experiment [4] is HFF-1. As to conditions: normal fibroblasts HFF-1, cited from earlier work; for IC50 ± SD HFF-1: Neg: negative in the concentration used, footnote a; for IC50: footnote b, read-out: IC50 ± SD HFF-1.
Experiment [5] has as its system C-32. In words: antiproliferative activity (WST-1), melanoma C-32. As to conditions: for SI (IC50 HFF-1/IC50 cancer line) C-32: selectivity index, HFF-1 vs C-32; for IC50: melanoma C-32, 72 h, WST-1, Neg: negative in the concentration used, read-out: IC50 ± SD C-32. It is filed as cell-based, human. How it is done:
(§1) Biological activity of the tested compounds was assessed in vitro using cultured cell lines: melanoma C-32 (ATCC, Rockville, MD, USA), glioblastoma SNB-19 (DSMZ, Braunschweig, Germany), breast cancer MDA-MB-231 (ATCC, Rockville, MD, USA), and normal human fibroblasts derived from foreskin HFF-1 (ATCC, Rockville, MD, USA). Cell cultures were maintained using DMEM (Lonza, Basel, Switzerland) supplemented with 10% fetal bovine serum (FBS) (Biological Industries Cromwell, CT, USA) and a mixture of penicillin (10,000 U/mL) and streptomycin (10 mg/mL) (Lonza, Basel, Switzerland).
(§2) Cells were cultured using 96-well plates (Nunc Thermo Fisher Scientific, Waltham, MA, USA). Cells were seeded (5 × 10^3 cells/well) and incubated for 24 h in a standard incubator (37 °C, 5% CO2, relative humidity 95%). Subsequently, the medium was replaced with a fresh aliquot containing an examined compound (0.01; 0.05; 0.1; 0.5; 1; 5; 10; 50; 100 µg/mL), and cells were further incubated for another 72 h. Upon the conclusion of incubation, a CVDE test (Aniara, West Chester, OH, USA) using crystal violet was performed to assess the relative number of cells in the culture. A WST-1 test (Roche) was performed to examine the metabolic activity of cells and test for the presence of LDH in the medium (Roche Diagnostics GmbH, Mannheim, Germany), allowing for the assessment of the relative number of dead cells (i.e., cytotoxicity of the examined compound). UVM340 microplate readers (BIOGENET, Józefów, Poland) were used to read absorbance values.
(§3) WST-1 colorimetric assay for cell proliferation (Roche Diagnostics GmbH, Mannheim, Germany, reagent kit cat. 11644807001) is based on the viable cells’ ability to cleave the bright red-colored stable tetrazolium salt WST-1 to dark red soluble formazan. This bioreduction occurs under the influence of mitochondrial dehydrogenases (depends mostly on production of NAD(P)H in viable cells). The amount of formazan dye formed correlates directly with the number of metabolically active cells in the culture and is measured by absorbance (λ = 450 nm) following 1 h incubation of cells with the reagent.

Experiment [6] deals with SNB-19. In words: antiproliferative activity (WST-1), glioblastoma SNB-19. It is filed as cell-based, human. As to conditions: for SI (IC50 HFF-1/IC50 cancer line) SNB-19: selectivity index, HFF-1 vs SNB-19; for IC50: glioblastoma SNB-19, 72 h, WST-1, Neg: negative in the concentration used, read-out: IC50 ± SD SNB-19. The procedure:
as §1, §2, §3

Experiment [7] concerns MDA-MB-231. In words: antiproliferative activity (WST-1), breast cancer MDA-MB-231. It is filed as cell-based, human. As to conditions: for SI (IC50 HFF-1/IC50 cancer line) MDA-MB-231: selectivity index, HFF-1 vs MDA-MB-231; for IC50: breast cancer MDA-MB-231, 72 h, WST-1, Neg: negative in the concentration used, read-out: IC50 ± SD MDA-MB-231. The procedure: as §1, §2, §3

Experiment [8] deals with HFF-1. In words: antiproliferative activity (WST-1), normal fibroblasts HFF-1. It is filed as cell-based, human. As to conditions: normal fibroblasts HFF-1, 72 h, Neg: negative in the concentration used, read-out: IC50 ± SD HFF-1. The procedure: as §1, §2, §3

Each structure is given as a SMILES string. Read-outs that look alike come from different tables or passages of the source.

Regarding `CCCOC1=C(Cl)C(=O)c2cccnc2C1=O` [Compound 7], the IC50 with C-32 [1] (footnote a) is 0.2 ± 0.1 µM; in the experiment with SNB-19 [2] (footnote a) it was 0.4 ± 0.1 µM; in the experiment with MDA-MB-231 [3] (footnote a), 22.4 ± 2.7 µM. Also, the “IC50 ± SD HFF-1” value with HFF-1 [4] was “Neg”.

As for `C=CCOC1=C(Cl)C(=O)c2cccnc2C1=O` [Compound 8], the 50% inhibitory concentration (IC50) in the experiment on C-32 [1] (footnote a) was 0.28 ± 0.1 µM; in the experiment on SNB-19 [2] (footnote a), 0.3 ± 0.1 µM; in the experiment with MDA-MB-231 [3] (footnote a) it was 17.2 ± 2.8 µM. The “IC50 ± SD HFF-1” value in the experiment on HFF-1 [4] was “Neg”.

For `C#CCOC1=C(Cl)C(=O)c2cccnc2C1=O` [Compound 9], the “SI (IC50 HFF-1/IC50 cancer line) C-32” value in the experiment with C-32 [5] stood at 10.31. Besides, in the experiment on SNB-19 [6], the “SI (IC50 HFF-1/IC50 cancer line) SNB-19” value came out at 0.16. Besides, the “SI (IC50 HFF-1/IC50 cancer line) MDA-MB-231” value in the experiment on MDA-MB-231 [7] is 0.15. Further, the IC50 is 0.32 ± 0.1 µM in the experiment with C-32 [1] (footnote b), 20.4 ± 0.2 µM in the experiment on SNB-19 [2] (footnote b), 21.4 ± 3.4 µM with MDA-MB-231 [3] (footnote b) and 3.3 ± 0.3 µM in the experiment with HFF-1 [4].

As to `CCCOC1=C(OCCC)C(=O)c2ncccc2C1=O` [Compound 16], the figures for the concentration for half-maximal inhibition (IC50) in the experiment with C-32 [1] (footnote a), in the experiment with SNB-19 [2] (footnote a) and in the experiment with MDA-MB-231 [3] (footnote a) were 1.1 ± 0.1 µM, 0.7 ± 0.02 µM and 3 ± 0.3 µM, respectively. Moreover, the “IC50 ± SD HFF-1” value in the experiment on HFF-1 [4] is listed as “Neg”.

For the molecule `C=CCOC1=C(OCC=C)C(=O)c2ncccc2C1=O` [Compound 17], the figures for the half-maximal inhibitory concentration (IC50) in the experiment with C-32 [1] (footnote a), in the experiment with SNB-19 [2] (footnote a) and in the experiment on MDA-MB-231 [3] (footnote a) were 1.5 ± 0.1 µM, 0.2 ± 0.1 µM and 12.6 ± 2.7 µM, respectively. In addition, the “IC50 ± SD HFF-1” value with HFF-1 [4] is “Neg”.

In the case of `C#CCOC1=C(OCC#C)C(=O)c2ncccc2C1=O` [Compound 18], in the experiment with C-32 [5], the “SI (IC50 HFF-1/IC50 cancer line) C-32” value was determined as 50.40. Moreover, the “SI (IC50 HFF-1/IC50 cancer line) SNB-19” value in the experiment with SNB-19 [6] stood at 0.58. In addition, the “SI (IC50 HFF-1/IC50 cancer line) MDA-MB-231” value with MDA-MB-231 [7] amounted to 7.00. For the same molecule, the IC50 is 0.3 ± 0.1 µM in the experiment on C-32 [1] (footnote b), 21.7 ± 1.1 µM in the experiment with SNB-19 [2] (footnote b), 1.8 ± 0.1 µM with MDA-MB-231 [3] (footnote b) and 12.6 ± 0.9 µM in the experiment on HFF-1 [4].

On to `Cc1ccc2c(n1)C(=O)C(OCC#CC=CC#CCO)=C(Cl)C2=O` [Compound 25, 6-Chloro-7-(8-hydroxy-4-octen-2,6-diynyloxy)-2-methyl-5,8-quinolinedione], for which the IC50 is 116 ± 2.9 µM with C-32 [5] (Homo sapiens, C32); 169 ± 4.8 µM in the experiment on SNB-19 [6] (Homo sapiens); 16.5 ± 1.9 µM in the experiment on MDA-MB-231 [7] (Homo sapiens); 27.1 ± 1.1 µM in the experiment on HFF-1 [8] (Homo sapiens). In addition, the “SI (IC50 HFF-1/IC50 cancer line) C-32” value in the experiment with C-32 [5] turned out to be 0.23. For the same molecule, in the experiment with SNB-19 [6], the “SI (IC50 HFF-1/IC50 cancer line) SNB-19” value is 0.16.

Regarding `O=C1C2=C(OCC#C/C=C\C#CCO2)C(=O)c2ccccc21` [Compound 26, 8-Octen-6,10-diynyl-1,4-dioxocyclododeca[2,3-g]-1,4-naphthoquinon], the concentration for half-maximal inhibition (IC50) is 30.3 ± 3.1 µM in the experiment with C-32 [5] (Homo sapiens, C32); 22.8 ± 1.4 µM in the experiment with SNB-19 [6] (Homo sapiens); 2 ± 0.2 µM in the experiment on MDA-MB-231 [7] (Homo sapiens); 17.5 ± 1.3 µM with HFF-1 [8] (Homo sapiens). Moreover, the “SI (IC50 HFF-1/IC50 cancer line) C-32” value with C-32 [5] amounted to 0.58. Moreover, the “SI (IC50 HFF-1/IC50 cancer line) SNB-19” value in the experiment on SNB-19 [6] is 0.77.

Regarding `O=C1C2=C(OCC#C/C=C\C#CCO2)C(=O)c2ncccc21` [Compound 27, 8-Octen-6,10-diynyl-1,4-dioxocyclododeca[2,3-g]-5,8-quinolinedione], the IC50 was 48.4 ± 8.9 µM in the experiment with C-32 [5] (Homo sapiens, C32); 31.5 ± 2.5 µM in the experiment with SNB-19 [6] (Homo sapiens); 25.1 ± 2.4 µM with MDA-MB-231 [7] (Homo sapiens); 13 ± 3.4 µM in the experiment on HFF-1 [8] (Homo sapiens). Moreover, the “SI (IC50 HFF-1/IC50 cancer line) C-32” value in the experiment with C-32 [5] was 0.27. The “SI (IC50 HFF-1/IC50 cancer line) SNB-19” value in the experiment with SNB-19 [6] was 0.41.

As for `Cc1ccc2c(n1)C(=O)C1=C(OCC#C/C=C\C#CCO1)C2=O` [Compound 28, 8-Octen-6,10-diynyl-1,4-8-octen-6,10-diynyl-1,4-dioxocyclododeca[2,3-g]-2-methyl-5,8-quinolinedione], the half-maximal inhibitory concentration (IC50) with C-32 [5] (Homo sapiens, C32) worked out at 155 ± 3.7 µM; in the experiment on SNB-19 [6] (Homo sapiens), 157 ± 5.7 µM; in the experiment on MDA-MB-231 [7] (Homo sapiens) it was 174 ± 5.9 µM; in the experiment with HFF-1 [8] (Homo sapiens), 27.8 ± 1.2 µM. The “SI (IC50 HFF-1/IC50 cancer line) C-32” value in the experiment with C-32 [5] turned out to be 0.18. Moreover, the “SI (IC50 HFF-1/IC50 cancer line) SNB-19” value in the experiment on SNB-19 [6] was 0.18.

Take `N.N.[Cl][Pt][Cl]` [cisplatin, reference compound]: the half-maximal inhibitory concentration (IC50) with C-32 [5] was 16.4 ± 1.2 µM; with SNB-19 [6], 18.9 ± 0.4 µM; in the experiment on MDA-MB-231 [7] it was 25.5 ± 0.2 µM; in the experiment with HFF-1 [8], 9.1 ± 1.8 µM. Moreover, in the experiment on C-32 [5], the “SI (IC50 HFF-1/IC50 cancer line) C-32” value is on record as 0.55. For the same molecule, the “SI (IC50 HFF-1/IC50 cancer line) SNB-19” value in the experiment with SNB-19 [6] stood at 0.48.
